Earlier results, collected in patent publication US20070248684A1, “Pharmaceutical formulations of oxcarbazepine and methods for its preparation” (priority 2006, published 2007).

Conditions: in words

solubility in water: practically insoluble
SMILES: NC(=O)N1c2ccccc2CC(=O)c2ccccc21 [Oxcarbazepine, 10-oxo-10,11-dihydro-5H-dibenz[b,f]azepine-5-carboxamide]
